Reference: ChEMBL document CHEMBL4145521, “Regioselective synthesis of 3,4-diaryl-5-unsubstituted isoxazoles, analogues of natural cytostatic combretastatin A4” (Eur J Med Chem, 2018)

How the values were obtained:
Format in all cases: functional
TK-10 [1] = assay: Cytotoxicity against human TK10 cells assessed as cell growth at 0.01 uM incubated for 48 hrs by sulforhodamine B assay relative to control; details: TK-10, 48 h, read-out: Activity
Malme-3M [2] = assay: Cytotoxicity against human MALME-3M cells assessed as cell growth at 10 uM incubated for 48 hrs by sulforhodamine B assay relative to control; details: read-out: Activity
RPMI-8226 [3] = assay: Cytotoxicity against human RPMI8226 cells incubated for 48 hrs by sulforhodamine B assay; details: RPMI-8226, 48 h
PC-3 = assay: Cytotoxicity against human PC3 cells assessed as cell growth at 100 uM incubated for 48 hrs by sulforhodamine B assay relative to control; details: PC-3, 48 h, read-out: Activity
MCF7 [4] = assay: Cytotoxicity against human MCF7 cells assessed as cell growth at 100 uM incubated for 48 hrs by sulforhodamine B assay relative to control; details: MCF7, 48 h, read-out: Activity
OVCAR-4 = assay: Cytotoxicity against human OVCAR4 cells assessed as cell growth at 100 uM incubated for 48 hrs by sulforhodamine B assay relative to control; details: OVCAR-4, 48 h, read-out: Activity
RXF 393 = assay: Cytotoxicity against human RXF393 cells assessed as cell growth at 10 uM incubated for 48 hrs by sulforhodamine B assay relative to control; details: RXF 393, 48 h, read-out: Activity
RPMI-8226 [5] = assay: Cytotoxicity against human RPMI8226 cells assessed as cell growth at 1 uM incubated for 48 hrs by sulforhodamine B assay relative to control; details: RPMI-8226, 48 h, read-out: Activity
NCI-H23 = assay: Cytotoxicity against human NCI-H23 cells assessed as cell growth at 1 uM incubated for 48 hrs by sulforhodamine B assay relative to control; details: NCI-H23, 48 h, read-out: Activity
SR = assay: Cytotoxicity against human SR cells assessed as cell growth at 0.1 uM incubated for 48 hrs by sulforhodamine B assay relative to control; details: read-out: Activity
TK-10 [6] = assay: Cytotoxicity against human TK10 cells assessed as cell growth at 1 uM incubated for 48 hrs by sulforhodamine B assay relative to control; details: TK-10, 48 h, read-out: Activity
HCC 2998 = assay: Cytotoxicity against human HCC2998 cells assessed as cell growth at 0.1 uM incubated for 48 hrs by sulforhodamine B assay relative to control; details: HCC 2998, 48 h, read-out: Activity
SK-MEL-5 [7] = assay: Cytotoxicity against human SK-MEL-5 cells assessed as cell growth at 0.01 uM incubated for 48 hrs by sulforhodamine B assay relative to control; details: SK-MEL-5, 48 h, read-out: Activity
Malme-3M [8] = assay: Cytotoxicity against human MALME-3M cells assessed as cell growth at 1 uM incubated for 48 hrs by sulforhodamine B assay relative to control; details: read-out: Activity
NCI-H460 = assay: Cytotoxicity against human NCI-H460 cells assessed as cell growth at 100 uM incubated for 48 hrs by sulforhodamine B assay relative to control; details: NCI-H460, 48 h, read-out: Activity
HCT-15 = assay: Cytotoxicity against human HCT15 cells assessed as cell growth at 100 uM incubated for 48 hrs by sulforhodamine B assay relative to control; details: HCT-15, 48 h, read-out: Activity
EKVX [9] = assay: Cytotoxicity against human EKVX cells incubated for 48 hrs by sulforhodamine B assay
SK-MEL-5 [10] = assay: Cytotoxicity against human SK-MEL-5 cells assessed as cell growth at 100 uM incubated for 48 hrs by sulforhodamine B assay relative to control; details: SK-MEL-5, 48 h, read-out: Activity
T47D [11] = assay: Cytotoxicity against human T47D cells assessed as cell growth at 0.1 uM incubated for 48 hrs by sulforhodamine B assay relative to control; details: read-out: Activity
EKVX [12] = assay: Cytotoxicity against human EKVX cells assessed as cell growth at 100 uM incubated for 48 hrs by sulforhodamine B assay relative to control; details: read-out: Activity
SF-295 = assay: Cytotoxicity against human SF295 cells assessed as cell growth at 100 uM incubated for 48 hrs by sulforhodamine B assay relative to control; details: SF-295, 48 h, read-out: Activity
SNB-75 = assay: Cytotoxicity against human SNB75 cells assessed as cell growth at 10 uM incubated for 48 hrs by sulforhodamine B assay relative to control; details: SNB-75, 48 h, read-out: Activity
HOP-62 = assay: Cytotoxicity against human HOP62 cells assessed as cell growth at 1 uM incubated for 48 hrs by sulforhodamine B assay relative to control; details: HOP-62, 48 h, read-out: Activity
SK-MEL-2 = assay: Cytotoxicity against human SK-MEL-2 cells incubated for 48 hrs by sulforhodamine B assay; details: SK-MEL-2, 48 h
T47D [13] = assay: Cytotoxicity against human T47D cells assessed as cell growth at 10 uM incubated for 48 hrs by sulforhodamine B assay relative to control; details: read-out: Activity
MCF7 [14] = assay: Cytotoxicity against human MCF7 cells assessed as cell growth at 0.1 uM incubated for 48 hrs by sulforhodamine B assay relative to control; details: MCF7, 48 h, read-out: Activity
MCF7 [15] = assay: Cytotoxicity against human MCF7 cells assessed as cell growth at 10 uM incubated for 48 hrs by sulforhodamine B assay relative to control; details: MCF7, 48 h, read-out: Activity
HOP-92 = assay: Cytotoxicity against human HOP92 cells assessed as cell growth at 100 uM incubated for 48 hrs by sulforhodamine B assay relative to control; details: HOP-92, 48 h, read-out: Activity
MCF7 [16] = assay: Cytotoxicity against human MCF7 cells assessed as cell growth at 1 uM incubated for 48 hrs by sulforhodamine B assay relative to control; details: MCF7, 48 h, read-out: Activity
M14 = assay: Cytotoxicity against human M14 cells assessed as cell growth at 0.1 uM incubated for 48 hrs by sulforhodamine B assay relative to control; details: M14, 48 h, read-out: Activity
SK-MEL-5 [17] = assay: Cytotoxicity against human SK-MEL-5 cells assessed as cell growth at 10 uM incubated for 48 hrs by sulforhodamine B assay relative to control; details: SK-MEL-5, 48 h, read-out: Activity
CAKI-1 = assay: Cytotoxicity against human Caki1 cells incubated for 48 hrs by sulforhodamine B assay; details: CAKI-1, 48 h
OVCAR-8 = assay: Cytotoxicity against human OVCAR8 cells assessed as cell growth at 0.01 uM incubated for 48 hrs by sulforhodamine B assay relative to control; details: OVCAR-8, 48 h, read-out: Activity
[18] = read-out: LC50 (the source's name)
[19] = read-out: pLC50 (the source's name) (converted)

Compound COc1ccc(-c2nocc2-c2cc(OC)c(OC)c(OC)c2)cc1 has a growth at 0.01 µM (TK-10 [1]) of 90%, a growth at 10 µM (Malme-3M [2]) of 60% and a GI50 (RPMI-8226 [3]; read-out: GI50) of 0.44 µM. For the same compound, the CC50 (RPMI-8226 [3]; [18]) was over 100 µM, the TGI (RPMI-8226 [3]; read-out: TGI) was 30.5 µM and the GI50 (RPMI-8226 [3]; read-out: pGI50 (converted)) was 0.437 µM. It also gave a CC50 (RPMI-8226 [3]; [19]) of over 100 µM, a TGI (RPMI-8226 [3]; read-out: pTGI (converted)) of 30.2 µM and a growth at 100 µM (PC-3) of -13%. It also gave a growth at 100 µM (MCF7 [4]) of 1%, a growth at 100 µM (OVCAR-4) of 15% and a growth at 10 µM (RXF 393) of 1%. For the same compound, the growth at 1 µM (RPMI-8226 [5]) was 32%, the growth at 1 µM (NCI-H23) was 29% and the growth at 0.1 µM (SR) was 42%. For the same compound, the growth at 1 µM (TK-10 [6]) was 21%, the growth at 0.1 µM (HCC 2998) was 62% and the growth at 0.01 µM (SK-MEL-5 [7]) was 100%. For the same compound, the growth at 1 µM (Malme-3M [8]) was 46%, the growth at 100 µM (NCI-H460) was -37% and the growth at 100 µM (HCT-15) was 1%. The GI50 (EKVX [9]; read-out: GI50) was 0.096 µM, the CC50 (EKVX [9]; [18]) was over 100 µM and the TGI (EKVX [9]; read-out: TGI) was over 100 µM. For the same compound, the GI50 (EKVX [9]; read-out: pGI50 (converted)) was 0.0955 µM, the CC50 (EKVX [9]; [19]) was over 100 µM and the TGI (EKVX [9]; read-out: pTGI) was over 100 µM. It also gave a growth at 100 µM (SK-MEL-5 [10]) of -99%, a growth at 0.1 µM (T47D [11]) of 43% and a growth at 100 µM (EKVX [12]) of 7%. The growth at 100 µM (SF-295) was -35%, the growth at 10 µM (SNB-75) was 19% and the growth at 1 µM (HOP-62) was 39%. The GI50 (SK-MEL-2; read-out: GI50) was 0.0664 µM, the CC50 (SK-MEL-2; [18]) was over 100 µM and the TGI (SK-MEL-2; read-out: TGI) was 69.2 µM. For the same compound, the GI50 (SK-MEL-2; read-out: pGI50 (converted)) was 0.0661 µM, the CC50 (SK-MEL-2; [19]) was over 100 µM and the TGI (SK-MEL-2; read-out: pTGI (converted)) was 69.2 µM. For the same compound, the growth at 10 µM (T47D [13]) was 52%, the growth at 0.1 µM (MCF7 [14]) was 27% and the growth at 10 µM (MCF7 [15]) was 14%. For the same compound, the growth at 100 µM (HOP-92) was -21%, the growth at 1 µM (MCF7 [16]) was 19% and the growth at 0.1 µM (M14) was 41%. It also gave a growth at 10 µM (SK-MEL-5 [17]) of -11%, a GI50 (CAKI-1; read-out: GI50) of 0.642 µM and an LC50 (CAKI-1; read-out: LC50) of over 100 µM. The TGI (CAKI-1; read-out: TGI) was over 100 µM, the GI50 (CAKI-1; read-out: pGI50 (converted)) was 0.646 µM and the LC50 (CAKI-1; read-out: pLC50 (converted)) was over 100 µM. For the same compound, the TGI (CAKI-1; read-out: pTGI) was over 100 µM and the growth at 0.01 µM (OVCAR-8) was 103%.
